In ChEMBL document CHEMBL5649167, “The SUV4-20 inhibitor A-196 verifies a role for epigenetics in genomic integrity” (Nat Chem Biol, 2017):
Each block holds one molecule with its values, some of them ahead of it. The source made the active and inactive calls. The calls are words filed in the database; no cut-off is given here.

Assays:
U2OS [1] = experiment: Inhibition of colony formation in human U2OS cells at 1 uM incubated for 48 hrs in the presence of aphidicolin by cell clonogenic assay; type: functional, cell-based
Rattus norvegicus = species on record: Rattus norvegicus; experiment: Inhibition of Rat alpha 2-Adrenoceptor at 10 uM relative to control
[2] = target: Protein arginine N-methyltransferase 8 (Homo sapiens) (UniProt Q9NR22); experiment: Inhibition of PRMT8 (unknown origin) using Biotin-tagged H4K20me1 and [3H-SAM] as substrate at 1 to 10 uM incubated for 2 hrs by scintillation proximity assay; details: dose 1-10 µM
U2OS [3] = experiment: Cytotoxicity against human U2OS cells assessed as cell viability upto 12.5 uM incubated for 48 hrs; type: functional, cell-based
[4] = target: Histone-lysine N-methyltransferase EZH2 (Homo sapiens) (UniProt Q15910); experiment: Inhibition of EZH2 (unknown origin) using Biotin-tagged H4K20me1 and [3H-SAM] as substrate at 1 to 10 uM incubated for 2 hrs by scintillation proximity assay; details: dose 1-10 µM
[5] = target: Proto-oncogene tyrosine-protein kinase Src (Homo sapiens) (UniProt P12931); experiment: Inhibition of human Src at 10 uM relative to control
Sequence of Proto-oncogene tyrosine-protein kinase Src (Homo sapiens) (P12931 2-536 limits assumed): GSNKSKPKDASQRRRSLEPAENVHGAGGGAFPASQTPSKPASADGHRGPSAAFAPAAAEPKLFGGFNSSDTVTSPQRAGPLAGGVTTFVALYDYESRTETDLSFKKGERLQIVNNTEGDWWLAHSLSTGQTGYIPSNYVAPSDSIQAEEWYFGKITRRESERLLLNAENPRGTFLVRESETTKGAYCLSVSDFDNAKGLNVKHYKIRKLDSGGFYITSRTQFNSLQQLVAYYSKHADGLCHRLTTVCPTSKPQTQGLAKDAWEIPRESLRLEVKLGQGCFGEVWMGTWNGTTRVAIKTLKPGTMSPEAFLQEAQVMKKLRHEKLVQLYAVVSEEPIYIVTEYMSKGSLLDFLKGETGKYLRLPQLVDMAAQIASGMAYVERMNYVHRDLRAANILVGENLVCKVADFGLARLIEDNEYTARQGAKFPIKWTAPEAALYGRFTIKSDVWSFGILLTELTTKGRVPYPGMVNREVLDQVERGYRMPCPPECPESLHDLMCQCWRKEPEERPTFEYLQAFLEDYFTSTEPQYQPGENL

U2OS [6] = experiment: Inhibition of H4K20me2 in human U2OS cells at 3 uM incubated for 48 hrs by Western blotting analysis; type: functional, cell-based
U2OS [7] = experiment: Inhibition of colony formation in human U2OS cells at 1 uM incubated for 48 hrs in the presence of MMC by cell clonogenic assay; type: functional, cell-based
[8] = target: Histone-lysine N-methyltransferase EHMT1 (Homo sapiens) (UniProt Q9H9B1); experiment: Inhibition of EHMT1 (unknown origin) using Biotin-tagged H4K20me1 and [3H-SAM] as substrate at 1 to 10 uM incubated for 2 hrs by scintillation proximity assay; details: dose 1-10 µM
[9] = target: Epidermal growth factor receptor (Homo sapiens) (UniProt P00533); experiment: Inhibition of human EGFR at 10 uM relative to control
Sequence of Epidermal growth factor receptor (Homo sapiens) (P00533 whole entry): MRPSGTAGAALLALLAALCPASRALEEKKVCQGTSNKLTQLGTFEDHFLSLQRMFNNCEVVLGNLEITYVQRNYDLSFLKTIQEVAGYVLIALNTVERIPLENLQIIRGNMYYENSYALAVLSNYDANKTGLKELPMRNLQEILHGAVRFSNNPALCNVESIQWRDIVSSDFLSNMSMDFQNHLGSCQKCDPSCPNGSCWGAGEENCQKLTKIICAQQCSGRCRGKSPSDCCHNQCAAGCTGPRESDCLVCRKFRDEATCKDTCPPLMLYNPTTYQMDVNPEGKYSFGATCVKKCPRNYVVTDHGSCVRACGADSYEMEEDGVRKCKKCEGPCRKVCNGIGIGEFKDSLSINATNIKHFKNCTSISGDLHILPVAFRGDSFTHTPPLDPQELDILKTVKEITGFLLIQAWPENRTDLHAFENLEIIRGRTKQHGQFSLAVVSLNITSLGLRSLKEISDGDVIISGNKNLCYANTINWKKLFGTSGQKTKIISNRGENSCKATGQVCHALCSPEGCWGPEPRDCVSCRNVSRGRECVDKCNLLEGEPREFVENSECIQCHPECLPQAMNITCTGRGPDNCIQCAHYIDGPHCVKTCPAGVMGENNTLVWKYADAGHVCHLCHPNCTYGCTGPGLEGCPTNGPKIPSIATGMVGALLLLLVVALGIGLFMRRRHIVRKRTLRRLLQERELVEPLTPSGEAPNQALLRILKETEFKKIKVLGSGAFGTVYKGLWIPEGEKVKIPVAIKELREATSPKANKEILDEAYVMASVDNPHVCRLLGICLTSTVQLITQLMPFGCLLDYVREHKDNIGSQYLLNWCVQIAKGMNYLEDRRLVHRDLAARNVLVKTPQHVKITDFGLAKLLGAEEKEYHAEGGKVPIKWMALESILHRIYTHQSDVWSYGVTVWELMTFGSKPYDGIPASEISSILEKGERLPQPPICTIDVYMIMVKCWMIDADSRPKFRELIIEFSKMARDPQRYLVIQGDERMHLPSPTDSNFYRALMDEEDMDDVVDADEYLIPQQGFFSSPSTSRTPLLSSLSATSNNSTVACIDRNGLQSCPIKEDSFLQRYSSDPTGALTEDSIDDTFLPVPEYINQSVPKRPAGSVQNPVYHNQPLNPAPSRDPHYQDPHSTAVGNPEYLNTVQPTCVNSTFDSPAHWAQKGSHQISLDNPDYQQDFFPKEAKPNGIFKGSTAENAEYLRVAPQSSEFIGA

U2OS [10] = experiment: Induction of DNA repair in human U2OS cells expressing I-SceI reporter assessed as change in HDR-mediated repair at 1 uM by flow cytometry analysis; type: functional, cell-based
[11] = target: Serine/threonine-protein kinase PAK 2 (Homo sapiens) (UniProt Q13177); experiment: Inhibition of human PAK2 at 10 uM relative to control
Sequence of Serine/threonine-protein kinase PAK 2 (Homo sapiens) (Q13177 whole entry): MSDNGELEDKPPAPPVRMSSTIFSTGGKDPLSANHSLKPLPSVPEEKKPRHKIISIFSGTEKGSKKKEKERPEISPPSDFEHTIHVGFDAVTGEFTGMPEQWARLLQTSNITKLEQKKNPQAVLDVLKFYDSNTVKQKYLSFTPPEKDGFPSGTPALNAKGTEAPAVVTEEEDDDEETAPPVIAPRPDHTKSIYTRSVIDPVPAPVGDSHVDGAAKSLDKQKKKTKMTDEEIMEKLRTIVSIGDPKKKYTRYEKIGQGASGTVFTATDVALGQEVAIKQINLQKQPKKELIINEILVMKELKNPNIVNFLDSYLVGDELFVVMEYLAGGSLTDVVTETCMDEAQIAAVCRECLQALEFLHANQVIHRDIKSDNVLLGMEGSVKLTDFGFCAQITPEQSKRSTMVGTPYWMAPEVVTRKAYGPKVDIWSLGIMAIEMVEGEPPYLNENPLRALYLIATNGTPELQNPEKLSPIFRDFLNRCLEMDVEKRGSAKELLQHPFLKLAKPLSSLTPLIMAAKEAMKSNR

[12] = target: Serine/threonine-protein kinase TAO2 (Homo sapiens) (UniProt Q9UL54); experiment: Inhibition of human TAOK2 at 10 uM relative to control
[13] = target: Histone-lysine N-methyltransferase KMT5B (Homo sapiens) (UniProt Q4FZB7); experiment: Inhibition of recombinant human 6His-(Tev)-G-SUV420H1 (69 to 335 residues) using Biotin-tagged H4K20me1 and [3H-SAM] as substrate at 10 uM incubated for 2 hrs by scintillation proximity assay
Sequence of Histone-lysine N-methyltransferase KMT5B (Homo sapiens) (Q4FZB7 whole entry, looked up, the tested form may be a part): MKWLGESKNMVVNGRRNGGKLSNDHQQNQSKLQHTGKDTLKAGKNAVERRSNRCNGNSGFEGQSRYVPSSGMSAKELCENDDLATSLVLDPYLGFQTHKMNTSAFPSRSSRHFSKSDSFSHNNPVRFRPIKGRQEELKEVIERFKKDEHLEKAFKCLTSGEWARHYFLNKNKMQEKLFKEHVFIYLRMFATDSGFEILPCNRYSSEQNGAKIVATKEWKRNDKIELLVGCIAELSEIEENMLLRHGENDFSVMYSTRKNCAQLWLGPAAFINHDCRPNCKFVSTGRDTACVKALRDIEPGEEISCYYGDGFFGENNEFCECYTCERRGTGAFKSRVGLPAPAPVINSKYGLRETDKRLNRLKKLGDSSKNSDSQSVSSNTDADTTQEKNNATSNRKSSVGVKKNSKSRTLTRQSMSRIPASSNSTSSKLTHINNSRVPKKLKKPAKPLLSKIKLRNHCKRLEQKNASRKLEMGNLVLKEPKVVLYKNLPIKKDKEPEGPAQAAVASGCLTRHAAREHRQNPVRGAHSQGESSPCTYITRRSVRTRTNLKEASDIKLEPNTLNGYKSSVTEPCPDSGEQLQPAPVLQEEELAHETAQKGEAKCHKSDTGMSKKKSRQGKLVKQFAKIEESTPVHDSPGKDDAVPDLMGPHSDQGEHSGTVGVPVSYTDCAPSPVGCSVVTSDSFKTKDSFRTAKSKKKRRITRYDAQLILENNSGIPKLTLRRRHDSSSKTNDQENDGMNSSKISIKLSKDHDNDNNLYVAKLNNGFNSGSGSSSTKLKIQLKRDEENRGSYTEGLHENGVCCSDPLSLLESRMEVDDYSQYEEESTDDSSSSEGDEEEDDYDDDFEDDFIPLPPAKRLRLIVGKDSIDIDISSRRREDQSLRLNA

U2OS [14] = experiment: Induction of cell cycle arrest in human U2OS cells assessed as increase in H4K20me1 in S phase at 0.6 to 6 uM by plot analysis; type: functional, cell-based; details: dose 0.6-6 µM
[15] = target: Histone-lysine N-methyltransferase PRDM9 (Homo sapiens) (UniProt Q9NQV7); experiment: Inhibition of PRDM9 (unknown origin) using Biotin-tagged H4K20me1 and [3H-SAM] as substrate at 1 to 10 uM incubated for 2 hrs by scintillation proximity assay; details: dose 1-10 µM
[16] = target: Histone-lysine N-methyltransferase 2A (Homo sapiens) (UniProt Q03164); experiment: Inhibition of MLL1 (unknown origin) using Biotin-tagged H4K20me1 and [3H-SAM] as substrate at 1 to 10 uM incubated for 2 hrs by scintillation proximity assay; details: dose 1-10 µM
[17] = target: Sodium-dependent serotonin transporter (Homo sapiens) (UniProt P31645); experiment: Inhibition of human SERT expressed in stable HEK cells at 10 uM relative to control; type: cell-based
Sequence of Sodium-dependent serotonin transporter (Homo sapiens) (P31645 whole entry, looked up): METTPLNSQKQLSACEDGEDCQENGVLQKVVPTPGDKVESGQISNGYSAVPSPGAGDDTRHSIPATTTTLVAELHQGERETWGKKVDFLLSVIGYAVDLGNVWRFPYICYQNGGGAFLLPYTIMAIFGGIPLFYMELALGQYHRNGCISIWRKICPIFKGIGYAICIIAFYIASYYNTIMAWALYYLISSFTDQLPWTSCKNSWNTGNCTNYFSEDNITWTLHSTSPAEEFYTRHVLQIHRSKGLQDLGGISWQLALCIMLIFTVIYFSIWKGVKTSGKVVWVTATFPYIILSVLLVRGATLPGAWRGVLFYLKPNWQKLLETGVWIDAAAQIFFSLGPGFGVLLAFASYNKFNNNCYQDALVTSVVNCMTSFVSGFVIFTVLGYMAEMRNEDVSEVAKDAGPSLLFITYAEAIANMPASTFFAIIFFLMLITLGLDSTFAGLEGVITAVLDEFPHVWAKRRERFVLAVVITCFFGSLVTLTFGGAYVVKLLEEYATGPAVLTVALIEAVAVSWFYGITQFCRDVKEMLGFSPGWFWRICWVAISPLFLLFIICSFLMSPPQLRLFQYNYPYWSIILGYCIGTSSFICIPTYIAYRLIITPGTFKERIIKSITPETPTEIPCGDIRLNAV

U2OS [18] = experiment: Induction of DNA repair in human U2OS cells expressing I-SceI reporter assessed as decrease in H4K20me3 level by Western blot analysis; type: functional, cell-based
U2OS [19] = experiment: Induction of DNA repair in human U2OS cells expressing I-SceI reporter assessed as increase in H4K20me1 level by Western blot analysis; type: functional, cell-based
[20] = target: RAC-alpha serine/threonine-protein kinase (Homo sapiens) (UniProt P31749); experiment: Inhibition of human Akt1 at 10 uM relative to control
U2OS [21] = experiment: Induction of cell cycle arrest in human U2OS cells assessed as decrease in H4K20me3 in S phase at 0.6 to 6 uM by plot analysis; type: functional, cell-based; details: dose 0.6-6 µM
[22] = target: High affinity nerve growth factor receptor (Homo sapiens) (UniProt P04629); experiment: Inhibition of human TRKA at 10 uM relative to control
Sequence of High affinity nerve growth factor receptor (Homo sapiens) (P04629 33-796 limits assumed): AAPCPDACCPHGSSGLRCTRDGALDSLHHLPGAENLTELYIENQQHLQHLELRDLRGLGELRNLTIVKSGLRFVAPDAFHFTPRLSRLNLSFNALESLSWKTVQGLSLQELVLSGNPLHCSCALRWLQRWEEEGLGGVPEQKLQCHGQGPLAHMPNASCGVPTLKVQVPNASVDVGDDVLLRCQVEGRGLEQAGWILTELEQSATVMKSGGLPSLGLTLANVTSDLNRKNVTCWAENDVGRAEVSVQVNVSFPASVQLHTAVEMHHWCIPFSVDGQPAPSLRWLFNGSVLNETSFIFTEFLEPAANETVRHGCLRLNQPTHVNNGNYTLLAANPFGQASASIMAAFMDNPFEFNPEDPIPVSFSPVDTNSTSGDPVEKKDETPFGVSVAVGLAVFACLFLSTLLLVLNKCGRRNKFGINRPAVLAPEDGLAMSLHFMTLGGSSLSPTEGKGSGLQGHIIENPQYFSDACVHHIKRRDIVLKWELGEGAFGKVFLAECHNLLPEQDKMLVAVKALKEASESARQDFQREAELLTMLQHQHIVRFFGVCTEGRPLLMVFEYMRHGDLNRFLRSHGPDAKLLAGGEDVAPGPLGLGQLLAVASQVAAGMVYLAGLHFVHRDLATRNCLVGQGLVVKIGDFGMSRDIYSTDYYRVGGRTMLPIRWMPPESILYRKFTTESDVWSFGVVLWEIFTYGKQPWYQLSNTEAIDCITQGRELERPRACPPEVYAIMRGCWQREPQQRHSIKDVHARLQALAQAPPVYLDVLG

[23] = target: 5-hydroxytryptamine receptor 7 (Homo sapiens) (UniProt P34969); experiment: Inhibition of human 5-HT7 in stable HEK cells at 10 uM relative to control; type: cell-based
Sequence of 5-hydroxytryptamine receptor 7 (Homo sapiens) (P34969 whole entry, the tested form may be a part): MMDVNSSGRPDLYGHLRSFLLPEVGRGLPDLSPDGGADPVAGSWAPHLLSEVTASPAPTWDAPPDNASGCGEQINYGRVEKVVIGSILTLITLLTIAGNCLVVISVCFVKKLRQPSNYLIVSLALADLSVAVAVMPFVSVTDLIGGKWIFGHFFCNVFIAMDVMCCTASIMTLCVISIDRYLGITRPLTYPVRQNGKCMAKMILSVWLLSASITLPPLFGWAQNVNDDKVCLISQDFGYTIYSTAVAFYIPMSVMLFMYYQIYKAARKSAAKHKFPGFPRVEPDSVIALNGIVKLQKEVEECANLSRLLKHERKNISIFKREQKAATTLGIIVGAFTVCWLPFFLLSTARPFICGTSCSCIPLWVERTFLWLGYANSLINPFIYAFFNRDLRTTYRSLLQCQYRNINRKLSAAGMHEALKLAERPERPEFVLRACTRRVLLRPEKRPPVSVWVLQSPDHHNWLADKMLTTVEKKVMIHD

[24] = target: Histone-lysine N-methyltransferase KMT5B (Homo sapiens) (UniProt Q4FZB7); experiment: Inhibition of recombinant human 6His-(Tev)-G-SUV420H1 (69 to 335 residues) using Biotin-tagged H4K20me1 and [3H-SAM] as substrate incubated for 2 hrs by scintillation proximity assay
[25] = target: Histone-lysine N-methyltransferase KMT5C (Homo sapiens) (UniProt Q86Y97); experiment: Inhibition of human SUV420H2 using Biotin-tagged H4K20me1 and [3H-SAM] as substrate incubated for 2 hrs by scintillation proximity assay
U2OS [26] = experiment: Inhibition of H4K20me2 in human U2OS cells assessed as change in methylation level at 10 uM incubated for 48 hrs by Western blotting analysis; type: functional, cell-based
U2OS [27] = experiment: Inhibition of H4K20me1 in human U2OS cells assessed as change in methylation level at 10 uM incubated for 48 hrs by Western blotting analysis; type: functional, cell-based
MEF = experiment: Antiproliferative activity against mouse MEF cells assessed as change in H4K20me3 at 10 uM incubated for 3 days by immunofluorescence analysis; type: functional, cell-based; details: time 3.0 day
[28] = target: Neurotensin receptor type 1 (Homo sapiens) (UniProt P30989); experiment: Inhibition of human NTS1 at 10 uM relative to control
U2OS [29] = experiment: Inhibition of H4K20me3 in human U2OS cells assessed as change in methylation level at 10 uM incubated for 48 hrs by Western blotting analysis; type: functional, cell-based

inhibition (Rattus norvegicus): 5%
inhibition [2]: inactive
inhibition [4]: inactive
inhibition [5]: -1%
inhibition [8]: inactive
inhibition [9]: -4%
inhibition [11]: -2%
inhibition [12]: 0%
inhibition [13]: Active
inhibition [15]: inactive
inhibition [16]: inactive
inhibition [17]: -7%
inhibition [20]: 0%
inhibition [22]: 1%
Compound: Clc1cc2c(NC3CCCC3)nnc(-c3ccncc3)c2cc1Cl
inhibition (U2OS [1]): Active
Activity (U2OS [3]): Active
inhibition (U2OS [6]): Active
inhibition (U2OS [7]): Active
Activity (U2OS [10]): inactive
Activity (U2OS [14]): Active
Activity (U2OS [18]): Active
Activity (U2OS [19]): Active
Activity (U2OS [21]): Active

inhibition [23]: 19%
inhibition [24]: inactive
inhibition [25]: inactive
inhibition [28]: 3%
Compound: O=C(c1nnc(NC2CCCC2)c2cc(Cl)c(Cl)cc12)N1CCC(O)CC1
Activity (U2OS [26]): inactive
Activity (U2OS [27]): inactive
Activity (MEF): inactive
Activity (U2OS [29]): inactive
